Measured values reported in US9517200B2, “Methods of delivering pharmaceutical agents” (Massachusetts Eye and Ear Infirmary, priority 2011, dated 2016).

Test system: 6-hydroxydopamine (6-OHDA) injury Parkinson's Disease mouse model
Test: Apomorphine-induced rotational behavior in unilateral striatal 6-OHDA injury mice
Assay type: in vivo
Details: intraperitoneal injection, 300 μL, 0.065 mg/mL, two weeks post-injury
Protocol: The details of these experiments are described below.
The mice underwent unilateral striatal 6-hydroxydopamine (6-OHDA) injection (3.2 μg/μL, 0.5 μL/min) according to Francardo et al. (Neurobiol. Dis. 42:327-340, 2011). […] The placement of a SEM graft over the skull of the mice was performed as described above. The duration of rotational behavior was determined in the treated mice.
The position of the mice was recorded by a camera (while they move freely in an arena). The number of contralateral rotations per minute was quantified using a custom analysis program written in Matlab and C++. Statistical analyses were performed using a Student's t-test to compare results between treatment groups (Stata v6.0).

CN1CCc2cccc3c2[C@H]1Cc1ccc(O)c(O)c1-3 [apomorphine]
rotational behavior (contralateral turns per minute): increased
